Earlier results in US20250302824A1, “IN SITU READY-TO-USE INJECTION FORMULATIONS OF POSACONAZOLE FREE OF CYCLODEXTRIN AND ITS DERIVATIVES” (Hefei Cosource Pharmaceuticals Co., Ltd, priority 2024, published 2025).
Converted amounts (≈) assume the structure as drawn. Read-outs that look alike come from different tables or passages of the source.

- solubility (at pH 1): 800 µg/mL (≈ 1140 µM)
- solubility (in neutral and alkaline solutions): less than 1 μg/ml
SMILES: CC[C@@H]([C@H](C)O)n1ncn(-c2ccc(N3CCN(c4ccc(OC[C@@H]5CO[C@@](Cn6cncn6)(c6ccc(F)cc6F)C5)cc4)CC3)cc2)c1=O [Posaconazole]
